{
  "source": "patent US11634396B2",
  "about": "(priority 2021, dated 2023)",
  "note": "Where a name gives a salt, the structure may show the parent alone.",
  "data": [
    {"target": "human mOR (Homo sapiens (Human), UniProt P35372)", "sequence (P35372 whole entry)": "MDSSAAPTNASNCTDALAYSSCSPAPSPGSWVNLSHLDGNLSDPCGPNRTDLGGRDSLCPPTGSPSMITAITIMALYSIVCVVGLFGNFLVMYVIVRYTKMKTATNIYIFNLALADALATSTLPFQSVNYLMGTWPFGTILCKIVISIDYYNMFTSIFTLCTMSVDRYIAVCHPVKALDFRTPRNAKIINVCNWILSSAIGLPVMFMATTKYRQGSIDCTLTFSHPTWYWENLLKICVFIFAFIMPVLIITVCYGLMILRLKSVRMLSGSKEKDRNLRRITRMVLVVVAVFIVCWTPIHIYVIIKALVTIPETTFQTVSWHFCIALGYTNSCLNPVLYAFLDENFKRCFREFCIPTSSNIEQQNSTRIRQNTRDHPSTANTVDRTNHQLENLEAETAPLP", "assay": "cell-based", "conditions": "not given", "units": {"IC50": "nM"}, "values": [
      {"smiles": "Cc1cc(O)cc(C)c1C[C@@H](CNC(=O)C[C@@H](c1cccnc1)C1(C(F)(F)F)CC1)N(C)C", "note": "[Compound 243, (S)-N-((S)-2-(dimethylamino)-3-(4-hydroxy-2,6-dimethylphenyl)propyl)-3-(pyridin-3-yl)-3-(1-(trifluoromethyl)cyclopropyl)propanamide]", "IC50": "< 300"},
      {"smiles": "Cc1ncc([C@@H](CC(=O)NC[C@H](Cc2ccc(C(N)=O)cc2)N(C)C)C2(C(F)(F)F)CC2)cn1", "note": "[Compound 79, 4-((S)-2-(dimethylamino)-3-((R)-3-(2-methylpyrimidin-5-yl)-3-(1-(trifluoromethyl)cyclopropyl)propanamido)propyl)benzamide]", "IC50": "< 300"},
      {"smiles": "CNC(=O)c1ccc(C[C@@H](CNC(=O)CC(c2ncccc2F)C2(C(F)(F)F)CC2)N(C)C)c(Cl)c1", "note": "(stereo partly drawn) [Compound 120, 3-chloro-4-((2S)-2-(dimethylamino)-3-(3-(3-fluoropyridin-2-yl)-3-(1-(trifluoromethyl)cyclopropyl)propanamido)propyl)-N-methylbenzamide]", "IC50": "< 300"},
      {"smiles": "Cc1ncc([C@@H](CC(=O)NC[C@H](Cc2ccc(O)cc2)N(C)C)C2(C(F)(F)F)CC2)s1", "note": "[Compound 295, (S)-N-((S)-2-(dimethylamino)-3-(4-hydroxyphenyl)propyl)-3-(2-methylthiazol-5-yl)-3-(1-(trifluoromethyl)cyclopropyl)propanamide]", "IC50": "< 300"},
      {"smiles": "CN(C)[C@H](CNC(=O)CC(c1ccncc1)C1(C(F)(F)F)CC1)Cc1ccc(O)cc1", "note": "(stereo partly drawn) [Compound 309, N-((S)-2-(dimethylamino)-3-(4-hydroxyphenyl)propyl)-3-(pyridin-4-yl)-3-(1-(trifluoromethyl)cyclopropyl)propanamide]", "IC50": "< 300"},
      {"smiles": "CNC(=O)c1cc(C)c(C[C@@H](CNC(=O)C[C@H](c2ccccc2)C2(C(F)(F)F)CC2)N(C)C)cc1F", "note": "[Compound 144, 4-((S)-2-(dimethylamino)-3-((R)-3-phenyl-3-(1-(trifluoromethyl)cyclopropyl)propanamido)propyl)-2-fluoro-N,5-dimethylbenzamide]", "IC50": "> 3000"},
      {"smiles": "CN(C)[C@H](CNC(=O)C[C@H](c1cccnc1)C1(C(F)(F)F)CC1)Cc1ccc(O)c(F)c1", "note": "[Compound 290, (R)-N-((S)-2-(dimethylamino)-3-(3-fluoro-4-hydroxyphenyl)propyl)-3-(pyridin-3-yl)-3-(1-(trifluoromethyl)cyclopropyl)propanamide]", "IC50": "< 300"},
      {"smiles": "CNC(=O)c1ccc(C[C@@H](CNC(=O)CC(c2cccnc2)C2(C(F)(F)F)CC2)N(C)C)c(Cl)c1F", "note": "(stereo in doubt) [Compound 109, 3-chloro-4-((S)-2-(dimethylamino)-3-((S)-3-(pyridin-3-yl)-3-(1-(trifluoromethyl)cyclopropyl)propanamido)propyl)-2-fluoro-N-methylbenzamide]", "IC50": "< 300"},
      {"smiles": "CN(C)[C@H](CNC(=O)CC(c1cccnc1)C1(C(F)(F)F)CC1)Cc1ccc(O)cc1", "note": "(stereo partly drawn) [Compound 291, N-((S)-2-(dimethylamino)-3-(4-hydroxyphenyl)propyl)-3-(pyridin-3-yl)-3-(1-(trifluoromethyl)cyclopropyl)propanamide]", "IC50": "< 300"},
      {"smiles": "CN(C)[C@H](CNC(=O)CC(c1ccncc1)C1(C(F)(F)F)CC1)Cc1ccc(C(N)=O)cc1Cl", "note": "(stereo partly drawn) [Compound 26, 3-chloro-4-[(2S)-2-(dimethylamino)-3-[3-(pyridin-4-yl)-3-[1-(trifluoromethyl)cyclopropyl]propanamido]propyl]benzamide]", "IC50": "< 300"},
      {"smiles": "Cc1ncc([C@@H](CC(=O)NC[C@H](Cc2ccc(C(N)=O)c(F)c2)N(C)C)C2CC2)cn1", "note": "[Compound 67, 4-((S)-3-((S)-3-cyclopropyl-3-(2-methylpyrimidin-5-yl)propanamido)-2-(dimethylamino)propyl)-2-fluorobenzamide]", "IC50": "> 3000"},
      {"smiles": "CN(C)[C@H](CNC(=O)C[C@H](c1cccnc1)C1(C(F)(F)F)CC1)Cc1ccc2[nH]ncc2c1Cl", "note": "[Compound 192, (R)-N-((S)-3-(4-chloro-1H-indazol-5-yl)-2-(dimethylamino)propyl)-3-(pyridin-3-yl)-3-(1-(trifluoromethyl)cyclopropyl)propanamide]", "IC50": "< 300"},
      {"smiles": "CNC(=O)c1ccc(C[C@@H](CNC(=O)C[C@H](c2cccnc2)C(C)(C)C)N(C)C)c(C)c1", "note": "[Compound 129, 4-((S)-3-((S)-4,4-dimethyl-3-(pyridin-3-yl)pentanamido)-2-(dimethylamino)propyl)-N,3-dimethylbenzamide]", "IC50": "< 300"},
      {"smiles": "CN(C)[C@H](CNC(=O)C[C@@H](c1ncc(Cl)cn1)C1(C(F)(F)F)CC1)Cc1cc(F)c(C(N)=O)cc1F", "note": "[Compound 5, 4-[(2S)-3-[(3R)-3-(5-chloropyrimidin-2-yl)-3-[1-(trifluoromethyl)cyclopropyl]propanamido]-2-(dimethylamino)propyl]-2,5-difluorobenzamide]", "IC50": "300 to 3000"},
      {"smiles": "CNC(=O)c1ccc(C[C@@H](CNC(=O)C[C@@H](CC(C)C)c2cccnc2)N(C)C)c(C)c1", "note": "[Compound 126, 4-((S)-2-(dimethylamino)-3-((R)-5-methyl-3-(pyridin-3-yl)hexanamido)propyl)-N,3-dimethylbenzamide]", "IC50": "> 3000"},
      {"smiles": "CN(C)[C@H](CNC(=O)CC(c1ncc(Cl)cn1)C1(C(F)(F)F)CC1)Cc1ccc(C(N)=O)cc1Cl", "note": "(stereo partly drawn) [Compound 31, 3-chloro-4-[(2S)-3-[3-(5-chloropyrimidin-2-yl)-3-[1-(trifluoromethyl)cyclopropyl]propanamido]-2-(dimethylamino)propyl]benzamide]", "IC50": "< 300"},
      {"smiles": "Cc1ncc([C@@H](CC(=O)NC[C@H](Cc2c(C)cc(O)cc2C)N(C)C)C2CC2)s1", "note": "[Compound 253, (S)-3-cyclopropyl-N-((S)-2-(dimethylamino)-3-(4-hydroxy-2,6-dimethylphenyl)propyl)-3-(2-methylthiazol-5-yl)propanamide]", "IC50": "< 300"},
      {"smiles": "CN(C)[C@H](CNC(=O)C[C@H](c1cncs1)C1(C(F)(F)F)CC1)Cc1ccc(O)cc1", "note": "[Compound 296, (S)-N-((S)-2-(dimethylamino)-3-(4-hydroxyphenyl)propyl)-3-(thiazol-5-yl)-3-(1-(trifluoromethyl)cyclopropyl)propanamide]", "IC50": "< 300"},
      {"smiles": "CNC(=O)c1ccc(C[C@@H](CNC(=O)C[C@H](c2cnc(C)nc2)C2(C(F)(F)F)CC2)N(C)C)cc1F", "note": "[Compound 152, 4-((S)-2-(dimethylamino)-3-((R)-3-(2-methylpyrimidin-5-yl)-3-(1-(trifluoromethyl)cyclopropyl)propanamido)propyl)-2-fluoro-N-methylbenzamide]", "IC50": "> 3000"},
      {"smiles": "CN(C)[C@H](CNC(=O)CC(c1ncccn1)C1(C(F)(F)F)CC1)Cc1ccc(O)cc1", "note": "(stereo partly drawn) [Compound 313, N-((S)-2-(dimethylamino)-3-(4-hydroxyphenyl)propyl)-3-(pyrimidin-2-yl)-3-(1-(trifluoromethyl)cyclopropyl)propanamide]", "IC50": "< 300"},
      {"smiles": "Cc1ccc([C@@H](CC(=O)NC[C@H](Cc2ccc(O)cc2C)N(C)C)C2(C(F)(F)F)CC2)o1", "note": "[Compound 266, (S)-N-((S)-2-(dimethylamino)-3-(4-hydroxy-2-methylphenyl)propyl)-3-(5-methylfuran-2-yl)-3-(1-(trifluoromethyl)cyclopropyl) propanamide]", "IC50": "< 300"},
      {"smiles": "Cc1ccc([C@@H](CC(=O)NC[C@H](Cc2ccc3[nH]ncc3c2)N(C)C)C2(C(F)(F)F)CC2)cn1", "note": "[Compound 211, (R)-N-((S)-2-(dimethylamino)-3-(1H-indazol-5-yl)propyl)-3-(6-methylpyridin-3-yl)-3-(1-(trifluoromethyl)cyclopropyl)propanamide]", "IC50": "< 300"},
      {"smiles": "Cc1c(C[C@@H](CNC(=O)C[C@H](c2cccnc2)C2(C(F)(F)F)CC2)N(C)C)ccc2[nH]ncc12", "note": "[Compound 197, (R)-N-((S)-2-(dimethylamino)-3-(4-methyl-1H-indazol-5-yl)propyl)-3-(pyridin-3-yl)-3-(1-(trifluoromethyl)cyclopropyl)propanamide]", "IC50": "< 300"},
      {"smiles": "CNC(=O)c1ccc(C[C@@H](CNC(=O)C[C@H](c2ccc(C)nc2)C2(C(F)(F)F)CC2)N(C)C)c(C)c1", "note": "[Compound 132, 4-((S)-2-(dimethylamino)-3-((R)-3-(6-methylpyridin-3-yl)-3-(1-(trifluoromethyl)cyclopropyl)propanamido)propyl)-N,3-dimethylbenzamide]", "IC50": "< 300"},
      {"smiles": "Cc1c(C[C@@H](CNC(=O)C[C@H](c2ccncc2)C2(C(F)(F)F)CC2)N(C)C)ccc2[nH]ncc12", "note": "[Compound 196, (R)-N-((S)-2-(dimethylamino)-3-(4-methyl-1H-indazol-5-yl)propyl)-3-(pyridin-4-yl)-3-(1-(trifluoromethyl)cyclopropyl)propanamide]", "IC50": "< 300"}
    ]},
    {"target": "human mOR (Homo sapiens (Human), UniProt P35372)", "assay": "cell-based", "conditions": "CHO Tag-lite human mOR stable cell line; forskolin 4 μM and DAMGO at EC90; read-out: mOR cAMP Antagonist Assay IC50", "units": {"IC50": "nM"}, "values": [
      {"smiles": "CNC(=O)c1ccc(C[C@@H](CNC(=O)C[C@@H](c2ccncc2)C2(C(F)(F)F)CC2)N(C)C)c(Cl)c1F", "note": "(single isomer, unassigned) [Compound 111]", "IC50": "< 300"},
      {"smiles": "CN(C)[C@H](CNC(=O)C[C@@H](c1cccnc1)C1(C(F)(F)F)CC1)Cc1ccc2[nH]c(=O)oc2c1", "note": "[Compound 176, (S)-N-((S)-2-(dimethylamino)-3-(2-oxo-2,3-dihydrobenzo[d]oxazol-6-yl)propyl)-3-(pyridin-3-yl)-3-(1-(trifluoromethyl)cyclopropyl)propanamide]", "IC50": "< 300"},
      {"smiles": "Cc1cc([C@@H](CC(=O)NC[C@H](Cc2ccc3[nH]ncc3c2)N(C)C)C2(C(F)(F)F)CC2)ccn1", "note": "[Compound 202, (R)-N-((S)-2-(dimethylamino)-3-(1H-indazol-5-yl)propyl)-3-(2-methylpyridin-4-yl)-3-(1-(trifluoromethyl)cyclopropyl)propanamide]", "IC50": "< 300"},
      {"smiles": "Cc1cnc([C@@H](CC(=O)NC[C@H](Cc2ccc(-c3nnc[nH]3)cc2)N(C)C)C2(C(F)(F)F)CC2)s1", "note": "[Compound 325, (S)-N-((S)-3-(4-(4H-1,2,4-triazol-3-yl)phenyl)-2-(dimethylamino)propyl)-3-(5-methylthiazol-2-yl)-3-(1-(trifluoromethyl)cyclopropyl) propanamide]", "IC50": "300 to 3000"},
      {"smiles": "N[C@H](CNC(=O)C[C@H](c1cccnc1)C1(C(F)(F)F)CC1)Cc1ccc2[nH]ncc2c1", "note": "[Compound 201, (R)-N-((S)-2-amino-3-(1H-indazol-5-yl)propyl)-3-(pyridin-3-yl)-3-(1-(trifluoromethyl)cyclopropyl)propenamide dihydrochloride salt]", "IC50": "> 3000"}
    ]}
  ]
}
